Experimental data from ChEMBL document CHEMBL5344425, “Discovery of 5-(Pyrimidin-2-ylamino)-1H-indole-2-carboxamide Derivatives as Nur77 Modulators with Selective and Potent Activity Against Triple-Negative Breast Cancer” (J Med Chem, 2023).
Active and inactive are the calls of the source. The calls are words filed in the database; no cut-off is given here.

Test system: not listed separately
Assay: Cytotoxicity against human MCF-10A cells assessed as inhibition of cell growth measured after 24 hrs by MTT assay
Assay type: toxicity, cell-based
Conditions: not given

| SMILES | IC50 at 24 h [µM] |
| --- | --- |
| COc1ccc(-c2ccnc(Nc3ccc4[nH]c(C(=O)NCCN5CCCC5)cc4c3)n2)cc1OC | 9.71 |
| COc1ccc(-c2ccnc(Nc3ccc4[nH]c(C(=O)NCCCN(C)C)cc4c3)n2)cc1OC | 15 |
| CCN(CC)CCCNC(=O)c1cc2cc(Nc3nccc(-c4ccc(OC)c(OC)c4)n3)ccc2[nH]1 | 3.57 |
| CCCCN(CCCC)CCCNC(=O)c1cc2cc(Nc3nccc(-c4cccnc4)n3)ccc2[nH]1 | 6.48 |
| CCCCCNC(=O)c1cc2cc(Nc3nccc(-c4ccccc4)n3)ccc2[nH]1 | > 20 |
| CN(C)CCCNC(=O)c1cc2cc(Nc3nccc(-c4cc(OCc5ccccc5)cc(OCc5ccccc5)c4)n3)ccc2[nH]1 | 3.9 |
| CN(C)CCNC(=O)c1cc2cc(Nc3nccc(-c4ccc(C(F)(F)F)cc4)n3)ccc2[nH]1 | 2.12 |
| Cc1nc(-c2ccnc(Nc3ccc4[nH]c(C(=O)NCCN5CCOCC5)cc4c3)n2)c(C)s1 | 15.4 |
| CCN(CC)CCCNC(=O)c1cc2cc(Nc3nccc(-c4ccc(Cl)s4)n3)ccc2[nH]1 | 5.54 |
| CCN(CC)CCCNC(=O)c1cc2cc(Nc3nccc(-c4ccccc4)n3)ccc2[nH]1 | 13 |
| CCN(CC)CCCNC(=O)c1cc2cc(Nc3nccc(-c4nc(C)sc4C)n3)ccc2[nH]1 | 19.2 |
| COc1ccc(-c2ccnc(Nc3ccc4[nH]c(C(=O)NCCN5CCN(C)CC5)cc4c3)n2)cc1OC | > 20 |
| CCCCN(CCCC)CCCNC(=O)c1cc2cc(Nc3nccc(-c4ccccc4)n3)ccc2[nH]1 | 4.96 |
| CN(C)CCCNC(=O)c1cc2cc(Nc3nccc(-c4ccccc4)n3)ccc2[nH]1 | > 20 |
| CN(C)CCNC(=O)c1cc2cc(Nc3nccc(-c4cccc(OCc5ccccc5)c4)n3)ccc2[nH]1 | > 20 |
| CCN(CC)CCCNC(=O)c1cc2cc(Nc3nccc(-c4ccc(C(F)(F)F)cc4)n3)ccc2[nH]1 | 6.57 |
| COc1ccc2[nH]cc(CCNC(=O)c3cc4cc(Nc5nccc(-c6cccnc6)n5)ccc4[nH]3)c2c1 | > 20 |
| CN(C)CCNC(=O)c1cc2cc(Nc3nccc(-c4cccnc4)n3)ccc2[nH]1 | > 20 |

Test system: T47D
Assay: Antiproliferative activity against human T47D cells assessed as inhibition of cell growth measured after 24 hrs by MTT assay
Assay type: functional, cell-based
Conditions: not given

| SMILES | IC50 [µM] |
| --- | --- |
| COc1ccc(-c2ccnc(Nc3ccc4[nH]c(C(=O)NCCN5CCCC5)cc4c3)n2)cc1OC | 3.26 |
| COc1ccc(-c2ccnc(Nc3ccc4[nH]c(C(=O)NCCCN(C)C)cc4c3)n2)cc1OC | 6.01 |
| CCN(CC)CCCNC(=O)c1cc2cc(Nc3nccc(-c4ccc(OC)c(OC)c4)n3)ccc2[nH]1 | 11.4 |
| CCCCN(CCCC)CCCNC(=O)c1cc2cc(Nc3nccc(-c4cccnc4)n3)ccc2[nH]1 | 10.6 |
| CCCCCNC(=O)c1cc2cc(Nc3nccc(-c4ccccc4)n3)ccc2[nH]1 | > 20 |
| CN(C)CCCNC(=O)c1cc2cc(Nc3nccc(-c4cc(OCc5ccccc5)cc(OCc5ccccc5)c4)n3)ccc2[nH]1 | 11.4 |
| CN(C)CCNC(=O)c1cc2cc(Nc3nccc(-c4ccc(C(F)(F)F)cc4)n3)ccc2[nH]1 | 6.71 |
| Cc1nc(-c2ccnc(Nc3ccc4[nH]c(C(=O)NCCN5CCOCC5)cc4c3)n2)c(C)s1 | > 20 |
| CCN(CC)CCCNC(=O)c1cc2cc(Nc3nccc(-c4ccc(Cl)s4)n3)ccc2[nH]1 | 2.3 |
| CCN(CC)CCCNC(=O)c1cc2cc(Nc3nccc(-c4ccccc4)n3)ccc2[nH]1 | 3.24 |
| CCN(CC)CCCNC(=O)c1cc2cc(Nc3nccc(-c4nc(C)sc4C)n3)ccc2[nH]1 | > 20 |
| COc1ccc(-c2ccnc(Nc3ccc4[nH]c(C(=O)NCCN5CCN(C)CC5)cc4c3)n2)cc1OC | 14.4 |
| CCCCN(CCCC)CCCNC(=O)c1cc2cc(Nc3nccc(-c4ccccc4)n3)ccc2[nH]1 | 15.2 |
| CN(C)CCCNC(=O)c1cc2cc(Nc3nccc(-c4ccccc4)n3)ccc2[nH]1 | 7.88 |
| CN(C)CCNC(=O)c1cc2cc(Nc3nccc(-c4cccc(OCc5ccccc5)c4)n3)ccc2[nH]1 | > 20 |
| CCN(CC)CCCNC(=O)c1cc2cc(Nc3nccc(-c4ccc(C(F)(F)F)cc4)n3)ccc2[nH]1 | 6.19 |
| COc1ccc2[nH]cc(CCNC(=O)c3cc4cc(Nc5nccc(-c6cccnc6)n5)ccc4[nH]3)c2c1 | 8.36 |
| CN(C)CCNC(=O)c1cc2cc(Nc3nccc(-c4cccnc4)n3)ccc2[nH]1 | > 20 |

Target: Nuclear receptor subfamily 4immunitygroup A member 1 (Homo sapiens, UniProt P22736)
Assay: Binding affinity to His-tagged Nur77 ligand binding domain (unknown origin) at 10 uM by surface plasmon resonance assay
Conditions: filed as modulator

Sequence of Nuclear receptor subfamily 4immunitygroup A member 1 (P22736 whole entry, the tested form may be a part): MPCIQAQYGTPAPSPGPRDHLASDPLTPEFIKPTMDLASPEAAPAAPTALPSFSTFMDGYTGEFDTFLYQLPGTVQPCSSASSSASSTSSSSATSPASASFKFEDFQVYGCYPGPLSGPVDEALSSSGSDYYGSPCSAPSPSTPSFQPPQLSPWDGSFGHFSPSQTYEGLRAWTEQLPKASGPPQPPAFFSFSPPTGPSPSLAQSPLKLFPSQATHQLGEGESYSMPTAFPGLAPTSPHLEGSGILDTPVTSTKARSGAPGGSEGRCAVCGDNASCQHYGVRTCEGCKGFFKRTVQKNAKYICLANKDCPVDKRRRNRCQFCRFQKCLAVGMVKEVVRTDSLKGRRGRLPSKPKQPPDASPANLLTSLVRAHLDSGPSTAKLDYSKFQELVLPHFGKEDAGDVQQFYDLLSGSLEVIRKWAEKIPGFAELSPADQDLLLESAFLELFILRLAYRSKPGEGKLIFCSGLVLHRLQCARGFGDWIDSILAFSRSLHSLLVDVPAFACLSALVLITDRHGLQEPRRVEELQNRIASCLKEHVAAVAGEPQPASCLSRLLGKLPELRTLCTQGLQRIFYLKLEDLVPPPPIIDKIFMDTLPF

| SMILES | Activity |
| --- | --- |
| COc1ccc(-c2ccnc(Nc3ccc4[nH]c(C(=O)NCCCN(C)C)cc4c3)n2)cc1OC | Active |
| CCN(CC)CCCNC(=O)c1cc2cc(Nc3nccc(-c4ccc(OC)c(OC)c4)n3)ccc2[nH]1 | Active |
| CCCCN(CCCC)CCCNC(=O)c1cc2cc(Nc3nccc(-c4cccnc4)n3)ccc2[nH]1 | Active |
| CCCCCNC(=O)c1cc2cc(Nc3nccc(-c4ccccc4)n3)ccc2[nH]1 | Active |
| CCN(CC)CCCNC(=O)c1cc2cc(Nc3nccc(-c4ccc(Cl)s4)n3)ccc2[nH]1 | Active |
| CCN(CC)CCCNC(=O)c1cc2cc(Nc3nccc(-c4ccccc4)n3)ccc2[nH]1 | Active |
| CCN(CC)CCCNC(=O)c1cc2cc(Nc3nccc(-c4nc(C)sc4C)n3)ccc2[nH]1 | Active |
| CN(C)CCCNC(=O)c1cc2cc(Nc3nccc(-c4ccccc4)n3)ccc2[nH]1 | Active |

Test system: MDA-MB-231
Assay: Antiproliferative activity against human MDA-MB-231 cells assessed as inhibition of cell growth measured after 24 hrs by MTT assay
Assay type: functional, cell-based
Conditions: MDA-MB-231, 24 h

| SMILES | IC50 [µM] |
| --- | --- |
| COc1ccc(-c2ccnc(Nc3ccc4[nH]c(C(=O)NCCN5CCCC5)cc4c3)n2)cc1OC | 4.02 |
| COc1ccc(-c2ccnc(Nc3ccc4[nH]c(C(=O)NCCCN(C)C)cc4c3)n2)cc1OC | 2.58 |
| CCN(CC)CCCNC(=O)c1cc2cc(Nc3nccc(-c4ccc(OC)c(OC)c4)n3)ccc2[nH]1 | 5.98 |
| CCCCN(CCCC)CCCNC(=O)c1cc2cc(Nc3nccc(-c4cccnc4)n3)ccc2[nH]1 | 4.3 |
| CCCCCNC(=O)c1cc2cc(Nc3nccc(-c4ccccc4)n3)ccc2[nH]1 | 17.3 |
| CN(C)CCCNC(=O)c1cc2cc(Nc3nccc(-c4cc(OCc5ccccc5)cc(OCc5ccccc5)c4)n3)ccc2[nH]1 | 1.69 |
| CN(C)CCNC(=O)c1cc2cc(Nc3nccc(-c4ccc(C(F)(F)F)cc4)n3)ccc2[nH]1 | 10.3 |
| Cc1nc(-c2ccnc(Nc3ccc4[nH]c(C(=O)NCCN5CCOCC5)cc4c3)n2)c(C)s1 | > 20 |
| CCN(CC)CCCNC(=O)c1cc2cc(Nc3nccc(-c4ccc(Cl)s4)n3)ccc2[nH]1 | 6.7 |
| CCN(CC)CCCNC(=O)c1cc2cc(Nc3nccc(-c4ccccc4)n3)ccc2[nH]1 | 7.24 |
| CCN(CC)CCCNC(=O)c1cc2cc(Nc3nccc(-c4nc(C)sc4C)n3)ccc2[nH]1 | > 20 |
| COc1ccc(-c2ccnc(Nc3ccc4[nH]c(C(=O)NCCN5CCN(C)CC5)cc4c3)n2)cc1OC | 17.4 |
| CCCCN(CCCC)CCCNC(=O)c1cc2cc(Nc3nccc(-c4ccccc4)n3)ccc2[nH]1 | 7.8 |
| CN(C)CCCNC(=O)c1cc2cc(Nc3nccc(-c4ccccc4)n3)ccc2[nH]1 | 8.87 |
| CN(C)CCNC(=O)c1cc2cc(Nc3nccc(-c4cccc(OCc5ccccc5)c4)n3)ccc2[nH]1 | > 20 |
| CCN(CC)CCCNC(=O)c1cc2cc(Nc3nccc(-c4ccc(C(F)(F)F)cc4)n3)ccc2[nH]1 | 6.52 |
| COc1ccc2[nH]cc(CCNC(=O)c3cc4cc(Nc5nccc(-c6cccnc6)n5)ccc4[nH]3)c2c1 | 18.2 |
| CN(C)CCNC(=O)c1cc2cc(Nc3nccc(-c4cccnc4)n3)ccc2[nH]1 | 3.12 |
